In ChEMBL document CHEMBL3885861, “Open TG-GATES”:

Species: Rattus norvegicus
Experiment: Open TG-GATES - Regimen: Daily Repeat
Format: toxicity, organism-based, Sprague-Dawley
Design: regimen Daily Repeat, gender Male, age 6 weeks
Conditions: in vivo, po, 300 mg/kg, route gavage, dose level Low; for Bas / Eos / Hb / Ht / Lym / MCH / MCHC / MCV / Mono / Neu / Plat / RBC / Ret / WBC: tissue Blood; for KIDNEY_L / KIDNEY_R / KIDNEY_TOTAL: tissue Kidney; for LIVER: tissue Liver; for A/G / ALP / ALT / AST / BUN / CRE / Ca / Cl / DBIL / GLC / IP / K / LDH / Na / PL / RALB / TBIL / TC / TG / TP / gamma-GTP: tissue Plasma

`CC(N)=O` [ACETAMIDE] gave a TERMINAL_BW (72 h, time 3 day) of 239.9 g, a Bas (72 h, time 3 day) of 0% and an Eos (72 h, time 3 day) of 0.8%. For the same compound, the Hb (72 h, time 3 day) was 12.4 g/dL, the Ht (72 h, time 3 day) was 38.3% and the Lym (72 h, time 3 day) was 75.8%. For the same compound, the MCH (72 h, time 3 day) was 20.5 pg, the MCHC (72 h, time 3 day) was 32.5% and the MCV (72 h, time 3 day) was 63 fL. For the same compound, the Mono (72 h, time 3 day) was 3.4%, the Neu (72 h, time 3 day) was 19.4% and the Plat (72 h, time 3 day) was 135.2 x10_4/uL. The RBC (72 h, time 3 day) was 608.2 x10_4/ul, the Ret (72 h, time 3 day) was 8.2% and the WBC (72 h, time 3 day) was 104.5 x10_2/uL. The KIDNEY_L (72 h, time 3 day) was 1 g, the KIDNEY_R (72 h, time 3 day) was 1 g and the KIDNEY_TOTAL (72 h, time 3 day) was 2.1 g. It also gave an LIVER (72 h, time 3 day) of 11.3 g, an A/G (72 h, time 3 day) of 1 and an ALP (72 h, time 3 day) of 2008.8 IU/L. The ALT (72 h, time 3 day) was 36.4 IU/L, the AST (72 h, time 3 day) was 65.4 IU/L and the BUN (72 h, time 3 day) was 17.6 mg/dL. For the same compound, the CRE (72 h, time 3 day) was 0.1 mg/dL, the Ca (72 h, time 3 day) was 10.8 mg/dL and the Cl (72 h, time 3 day) was 103.4 meq/L. It also gave a DBIL (72 h, time 3 day) of 0.002 mg/dL, a GLC (72 h, time 3 day) of 184.6 mg/dL and an IP (72 h, time 3 day) of 6.6 mg/dL. It also gave a K (72 h, time 3 day) of 4.5 meq/L, an LDH (72 h, time 3 day) of 138.4 IU/L and a Na (72 h, time 3 day) of 139.5 meq/L. It also gave a PL (72 h, time 3 day) of 157.2 mg/dL, an RALB (72 h, time 3 day) of 2.8 g/dL and a TBIL (72 h, time 3 day) of 0.006 mg/dL. For the same compound, the TC (72 h, time 3 day) was 80.4 mg/dL, the TG (72 h, time 3 day) was 137.5 mg/dL and the TP (72 h, time 3 day) was 5.5 g/dL. For the same compound, the gamma-GTP (72 h, time 3 day) was 0.8 IU/L, the TERMINAL_BW ([…], time 7 day) was 271.7 g and the TERMINAL_BW ([…], time 14 day) was 327.7 g. For the same compound, the TERMINAL_BW ([…], time 28 day) was 432.9 g, the Bas ([…], time 7 day) was 0% and the Eos ([…], time 7 day) was 0.8%. For the same compound, the Hb ([…], time 7 day) was 12.5 g/dL, the Ht ([…], time 7 day) was 38.3% and the Lym ([…], time 7 day) was 76.4%. It also gave an MCH ([…], time 7 day) of 19.8 pg, an MCHC ([…], time 7 day) of 32.7% and an MCV ([…], time 7 day) of 60.6 fL. For the same compound, the Mono ([…], time 7 day) was 3.4%, the Neu ([…], time 7 day) was 18.4% and the Plat ([…], time 7 day) was 115.7 x10_4/uL. For the same compound, the RBC ([…], time 7 day) was 631.6 x10_4/ul, the Ret ([…], time 7 day) was 6.4% and the WBC ([…], time 7 day) was 120.4 x10_2/uL. The Bas ([…], time 14 day) was 0%, the Eos ([…], time 14 day) was 1% and the Hb ([…], time 14 day) was 13.2 g/dL. The Ht ([…], time 14 day) was 39.9%, the Lym ([…], time 14 day) was 76.8% and the MCH ([…], time 14 day) was 19.6 pg. It also gave an MCHC ([…], time 14 day) of 33.2%, an MCV ([…], time 14 day) of 59.2 fL and a Mono ([…], time 14 day) of 2.8%. For the same compound, the Neu ([…], time 14 day) was 19%, the Plat ([…], time 14 day) was 105.9 x10_4/uL and the RBC ([…], time 14 day) was 674.2 x10_4/ul. For the same compound, the Ret ([…], time 14 day) was 4.8%, the WBC ([…], time 14 day) was 126.4 x10_2/uL and the Bas ([…], time 28 day) was 0%. The Eos ([…], time 28 day) was 1%, the Hb ([…], time 28 day) was 14.1 g/dL and the Ht ([…], time 28 day) was 42.1%. It also gave a Lym ([…], time 28 day) of 77.8%, an MCH ([…], time 28 day) of 19.1 pg and an MCHC ([…], time 28 day) of 33.5%. The MCV ([…], time 28 day) was 57.1 fL, the Mono ([…], time 28 day) was 2.4% and the Neu ([…], time 28 day) was 17.8%. The Plat ([…], time 28 day) was 111 x10_4/uL, the RBC ([…], time 28 day) was 737.8 x10_4/ul and the Ret ([…], time 28 day) was 3.2%. It also gave a WBC ([…], time 28 day) of 165 x10_2/uL, a KIDNEY_L ([…], time 7 day) of 1.1 g and a KIDNEY_R ([…], time 7 day) of 1.1 g. The KIDNEY_TOTAL ([…], time 7 day) was 2.2 g, the KIDNEY_L ([…], time 14 day) was 1.3 g and the KIDNEY_R ([…], time 14 day) was 1.3 g. It also gave a KIDNEY_TOTAL ([…], time 14 day) of 2.6 g, a KIDNEY_L ([…], time 28 day) of 1.5 g and a KIDNEY_R ([…], time 28 day) of 1.5 g. The KIDNEY_TOTAL ([…], time 28 day) was 3 g, the LIVER ([…], time 7 day) was 12.8 g and the LIVER ([…], time 14 day) was 14.1 g. For the same compound, the LIVER ([…], time 28 day) was 17.3 g, the A/G ([…], time 7 day) was 0.9 and the ALP ([…], time 7 day) was 1504 IU/L. It also gave an ALT ([…], time 7 day) of 39.4 IU/L, an AST ([…], time 7 day) of 73.4 IU/L and a BUN ([…], time 7 day) of 19.4 mg/dL. The CRE ([…], time 7 day) was 0.2 mg/dL, the Ca ([…], time 7 day) was 10.5 mg/dL and the Cl ([…], time 7 day) was 104.1 meq/L. It also gave a DBIL ([…], time 7 day) of 0 mg/dL, a GLC ([…], time 7 day) of 187.4 mg/dL and an IP ([…], time 7 day) of 6.3 mg/dL. For the same compound, the K ([…], time 7 day) was 4.7 meq/L, the LDH ([…], time 7 day) was 205.8 IU/L and the Na ([…], time 7 day) was 141.3 meq/L. It also gave a PL ([…], time 7 day) of 149.6 mg/dL, an RALB ([…], time 7 day) of 2.8 g/dL and a TBIL ([…], time 7 day) of 0 mg/dL. It also gave a TC ([…], time 7 day) of 72 mg/dL, a TG ([…], time 7 day) of 141.8 mg/dL and a TP ([…], time 7 day) of 5.8 g/dL. For the same compound, the gamma-GTP ([…], time 7 day) was 0.5 IU/L, the A/G ([…], time 14 day) was 0.9 and the ALP ([…], time 14 day) was 1341.2 IU/L. The ALT ([…], time 14 day) was 34.4 IU/L, the AST ([…], time 14 day) was 68.6 IU/L and the BUN ([…], time 14 day) was 17.7 mg/dL. It also gave a CRE ([…], time 14 day) of 0.2 mg/dL, a Ca ([…], time 14 day) of 10.4 mg/dL and a Cl ([…], time 14 day) of 104.9 meq/L. The DBIL ([…], time 14 day) was 0 mg/dL, the GLC ([…], time 14 day) was 197.4 mg/dL and the IP ([…], time 14 day) was 6.3 mg/dL. For the same compound, the K ([…], time 14 day) was 4.4 meq/L, the LDH ([…], time 14 day) was 244 IU/L and the Na ([…], time 14 day) was 141.1 meq/L. It also gave a PL ([…], time 14 day) of 147.4 mg/dL, an RALB ([…], time 14 day) of 2.8 g/dL and a TBIL ([…], time 14 day) of 0.002 mg/dL. For the same compound, the TC ([…], time 14 day) was 71.2 mg/dL, the TG ([…], time 14 day) was 132 mg/dL and the TP ([…], time 14 day) was 5.8 g/dL. It also gave a gamma-GTP ([…], time 14 day) of 0.7 IU/L, an A/G ([…], time 28 day) of 0.9 and an ALP ([…], time 28 day) of 1160.4 IU/L. For the same compound, the ALT ([…], time 28 day) was 41.2 IU/L, the AST ([…], time 28 day) was 75.8 IU/L and the BUN ([…], time 28 day) was 20.1 mg/dL. It also gave a CRE ([…], time 28 day) of 0.2 mg/dL, a Ca ([…], time 28 day) of 10.5 mg/dL and a Cl ([…], time 28 day) of 104.1 meq/L. For the same compound, the DBIL ([…], time 28 day) was 0.004 mg/dL, the GLC ([…], time 28 day) was 211.2 mg/dL and the IP ([…], time 28 day) was 6.3 mg/dL. For the same compound, the K ([…], time 28 day) was 4.3 meq/L, the LDH ([…], time 28 day) was 256 IU/L and the Na ([…], time 28 day) was 141.8 meq/L. It also gave a PL ([…], time 28 day) of 158.6 mg/dL, an RALB ([…], time 28 day) of 2.8 g/dL and a TBIL ([…], time 28 day) of 0 mg/dL. The TC ([…], time 28 day) was 77 mg/dL, the TG ([…], time 28 day) was 175.1 mg/dL and the TP ([…], time 28 day) was 6 g/dL. For the same compound, the gamma-GTP ([…], time 28 day) was 0.9 IU/L.
